Patent publication US20220009909A1, “ADAMTS INHIBITORS, PREPARATION METHODS AND MEDICINAL USES THEREOF” (Eternity Bioscience Inc., priority 2020, published 2022)

Tests used:
[1] = target: T1, ADAMTS-5 recombinant protein (Homo sapiens, UniProt Q9UNA0); test: In vitro fluorescence (FRET-peptide) enzymatic assay of ADAMTS-5 activity; format: biochemical; conditions: FRET peptide substrate 8 μM, 10 nM enzyme, 37° C. 3 hours
T1 construct: purchased R&D Systems 2198-AD
T1 sequence (Q9UNA0 262-622 limits assumed): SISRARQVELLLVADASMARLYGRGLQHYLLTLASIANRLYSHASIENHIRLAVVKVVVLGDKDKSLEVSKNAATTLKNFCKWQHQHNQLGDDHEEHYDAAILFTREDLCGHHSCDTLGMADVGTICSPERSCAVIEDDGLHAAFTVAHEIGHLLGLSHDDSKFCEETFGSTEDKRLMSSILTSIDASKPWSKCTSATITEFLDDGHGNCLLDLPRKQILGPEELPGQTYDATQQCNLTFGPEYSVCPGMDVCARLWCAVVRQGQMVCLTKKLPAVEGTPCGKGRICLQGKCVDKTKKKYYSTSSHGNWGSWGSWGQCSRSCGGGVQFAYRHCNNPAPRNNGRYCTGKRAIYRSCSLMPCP
Experimental: (§1) A FRET (fluorescence resonance energy transfer) peptide was cleaved by recombinant ADAMTS-4 or ADAMTS-5 proteins into two separate fragments resulting in an increase of fluorescence signal which was quantified. The peptide was 5-FAM-TEGEARGSVILLK (5-TAMRA)K—NH2, customized from ANASPEC. ADAMTS-4 recombinant protein (4307-AD) and ADAMTS-5 recombinant protein (2198-AD) were purchased from R&D Systems.
(§2) An assay buffer containing 50 mM HEPES pH 7.5, 100 mM NaCl, 5 mM CaCl2, 0.1% CHAPS and 5% Glycerol was prepared. A volume of 2.5 μl of compound in the assay buffer was dispensed to a 384-well plate, and 2.5 μl of ADAMTS-4 or ADAMTS-5 protein (final concentration in the reaction was 10 nM) was added. The compounds and proteins were pre-incubated at room temperature for 15 minutes. Then, 5 μl of substrate was added to each well. The final substrate concentrations for ADAMTS-4 and ADAMTS-5 were 15 μM and 8 μM, respectively. The fluorescence signal in each well was determined, after incubation at 37° C. for 3 hours, on a TECAN plate reader (Excitation, 490 nm; Emission, 520 nm).
(§3) The data was inputted into GraphPad Prism, and the IC50 values were calculated using function “log (inhibitor) vs. response-Variable slope (four parameters)”, (See Table 1)

[2] = target: T1, ADAMTS-5 recombinant protein; test: Aggrecan-IGD enzymatic assay for ADAMTS-5 inhibitors (ARGSVIL-peptide ELISA); format: biochemical; conditions: aggrecan-IGD protein substrate, 37° C. 45 minutes
Experimental: In this assay, the enzymatic activity of recombinant ADAMTS-5 protein (2198-AD, R&D Systems) was assayed with a protein substrate, the aggrecan IGD protein. The aggrecan IGD protein is a polypeptide connecting human aggrecan globular domains 1 and 2 (T331-G458) expressed in E. coli with a C-terminal His-tag (BIOTEZ, 30411000). The enzymatic product ARGSVIL-peptide was detected using an ELISA kit from BioTEZ (30510111). An assay buffer containing 50 mM HEPES pH 7.5, 100 mM NaCl, 5 mM CaCl2, 0.1% CHAPS and 5% Glycerol was prepared. Recombinant ADAMTS-5 protein was diluted to 0.3 nM in the assay buffer. Ten μL of buffer and 10 μl of compound solution was transferred to each well of a 96-well plate and incubated at room temperature for 15 minutes. Substrate aggrecan-IGD was diluted to 100 nM with the assay buffer and 20 μl was added to each well. The plate was incubated at 37° C. for 45 minutes. After incubation, the newly generated epitope ARGSVIL-peptides were measured using the Aggrecanase Activity ELISA Assay Kit following the manufacturer's instructions. Then, 100 μl of stop solution was added and the absorbance of each well was read at 450 nm, using […] as reference on a TECAN plate reader.
A standard curve of the ELISA assay was generated in GraphPad Prism using Sigmoidal 4PL function and the corresponding peptide concentrations were calculated based on the standard curve. The IC50 values were calculated using function “log (inhibitor) vs. response-Variable slope (four parameters)”. (See Table 2).

[3] = system: mouse femoral head cartilage; test: Mouse cartilage explant assay (IL-1α induced GAG release); format: cell-based; conditions: inhibition of GAG release, IL-1α 1 ng/mL, 72 hours; for inhibition at 2 µM: compound 2 μM, read-out: Inhibiton % at 2 μM; for inhibition at 20 µM: compound 20 μM
Experimental: In this assay, fresh mouse femoral head cartilage was treated with IL-1a protein (Sigma-Aldrich, 12778) in culture media, which induced the cartilage catabolism. Then, the GAGs attached to the cleaved aggrecan fragments (released in the media) and the GAGs attached to the intact aggrecan were measured by dimethylmethylene blue dye in the Glycosaminoglycans Assay Kit (Chondrex, 6022).
Femoral head cartilage samples were isolated from mice (25 days old, male, C57BL/6, from Charles River Lab) and put into 2.0 mL tubes filled-up with media (DMEM, 10% FBS, 4 mM Glutamine, penicillin-streptomycin, 20 mM HEPES). 200 μl of media without FBS was added to each well of a 48-well plate, and one piece of cartilage was transferred to a well in the plate. Then the media was aspirated, and compounds and IL-1α protein were added to the plate in a total volume of 400 μl of fresh media without FBS. The final concentration of IL-1α was 1 ng/mL. The plate was incubated at 37° C. for 72 hours in a humidified incubator with 5% CO2 supply.
The supernatant was transferred to a 1.5 mL tube and kept at −20° C. Each cartilage sample was transferred to another 1.5 mL tube containing 400 μl of freshly made papain solution. The papain solution contained 125 μg/mL papain (Sigma-Aldrich, P3125), 0.1 M sodium acetate (Sigma-Aldrich. S7899), pH 5.5 and 5 mM EDTA and 5 mM L-cysteine-HCl (Sigma-Aldrich, C7880). The cartilage samples were kept rocking in a 60° C. water bath for 24 hours.
The lysates were vortexed for 10 seconds and spinned at 10,000 rpm for 2 minutes. Both the supernatant and the lysate samples were diluted with PBS and mixed with 100 μL of dye from the Glycosaminoglycans Assay Kit. The optical density from each well was determined with a TECAN plate reader set to a wavelength of 525 nm,
The concentrations of GAGs in the supernatant and lysates were determined based on the standard curve with a dose range of chondroitin sulfate provided in the kit. The percentage of GAG release was calculated as the following: […]
The test compound effect was expressed as the percent of inhibition using the following formula: […]

[4] = target: T2, ADAMTS-4 recombinant protein (Homo sapiens, UniProt O75173); test: In vitro fluorescence (FRET-peptide) enzymatic assay of ADAMTS-4 activity; format: biochemical; conditions: FRET peptide substrate 15 μM, 10 nM enzyme, 37° C. 3 hours
T2 construct: purchased R&D Systems 4307-AD
T2 sequence (O75173 213-685 limits assumed): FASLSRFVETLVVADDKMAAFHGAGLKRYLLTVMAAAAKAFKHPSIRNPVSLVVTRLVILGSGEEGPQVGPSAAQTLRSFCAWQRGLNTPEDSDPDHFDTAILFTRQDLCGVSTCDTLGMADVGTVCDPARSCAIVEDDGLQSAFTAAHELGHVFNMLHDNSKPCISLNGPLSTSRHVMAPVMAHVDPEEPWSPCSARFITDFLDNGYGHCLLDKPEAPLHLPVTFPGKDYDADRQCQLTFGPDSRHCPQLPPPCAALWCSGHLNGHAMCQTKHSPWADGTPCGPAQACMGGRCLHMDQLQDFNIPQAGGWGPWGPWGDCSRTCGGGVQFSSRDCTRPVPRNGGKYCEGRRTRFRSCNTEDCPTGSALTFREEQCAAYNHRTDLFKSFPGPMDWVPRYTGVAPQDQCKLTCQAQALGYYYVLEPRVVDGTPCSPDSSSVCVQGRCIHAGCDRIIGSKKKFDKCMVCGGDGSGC
Experimental: as §1, §2, §3

Compound	IC50 [1] [µM]	IC50 [2] [µM]	inhibition at 2 µM [3] [%]	inhibition at 20 µM [3] [%]	IC50 [4] [µM]
C[C@@H]1c2cc(Cl)c(Cl)cc2CN1C(=O)NC[C@@]1(C2CC2)NC(=O)NC1=O [Example 2-1, (R)-5,6-dichloro-N—(((R)-4-cyclopropyl-2,5-dioxoimidazolidin-4-yl)methyl)-1-methylisoindoline-2-carboxamide]	0.009	0.017	14	86	0.034
O=C1NC(=O)[C@](CNC(=O)N2Cc3cc(Cl)c(Cl)cc3C2)(C2CC2)N1 [Example 1-2, (R)-5,6-dichloro-N-((4-cyclopropyl-2,5-dioxoimidazolidin-4-yl)methyl)isoindoline-2-carboxamide]	0.023	0.026	47	87	0.016
O=C1NC(=O)C(CNC(=O)N2Cc3ccc(C(F)(F)F)cc3C2)(C2CC2)N1 (stereo not shown) [Example 4, N-((4-cyclopropyl-2,5-dioxoimidazolidin-4-yl)methyl)-5-(trifluoromethyl)isoindoline-2-carboxamide]	0.1	0.14	0	94	0.28
[2H]C1([2H])c2cc(Cl)c(C(F)(F)F)cc2C(C)N1C(=O)NC[C@@]1(C2CC2)NC(=O)NC1=O (stereo partly drawn) [Example 9, 5-chloro-N—(((R)-4-cyclopropyl-2,5-dioxoimidazolidin-4-yl)methyl)-1-methyl-6-(trifluoromethyl)isoindoline-3,3-d2-2-carboxamide]	0.03	0.034			0.053
CC1c2cc(Cl)c(Cl)cc2CN1C(=O)NC[C@@]1(C2CC2)NC(=O)NC1=O (stereo partly drawn) [Example 2, 5,6-dichloro-N—(((R)-4-cyclopropyl-2,5-dioxoimidazolidin-4-yl)methyl)-1-methylisoindoline-2-carboxamide]	0.036	0.044			0.042
C[C@@H]1c2cc(C(F)(F)F)c(Cl)cc2CN1C(=O)NC[C@@]1(C2CC2)NC(=O)NC1=O [Example 8-1, (R)-5-chloro-N—(((R)-4-cyclopropyl-2,5-dioxoimidazolidin-4-yl)methyl)-1-methyl-6-(trifluoromethyl)isoindoline-2-carboxamide]	0.008	0.017	61	95	0.012
CC1c2cc(C(F)(F)F)c(Cl)cc2CN1C(=O)NC[C@@]1(C2CC2)NC(=O)NC1=O (stereo partly drawn) [Example 8, 5-chloro-N—(((R)-4-cyclopropyl-2,5-dioxoimidazolidin-4-yl)methyl)-1-methyl-6-(trifluoromethyl)isoindoline-2-carboxamide]	0.022	0.034			0.033
O=C1NC(=O)[C@](CNC(=O)N2Cc3cc(Cl)c(C(F)(F)F)cc3C2)(C2CC2)N1 [Example 3, (R)-5-chloro-N-((4-cyclopropyl-2,5-dioxoimidazolidin-4-yl)methyl)-6-(trifluoromethyl)isoindoline-2-carboxamide]	0.04	0.04			0.039
[2H]C1([2H])c2cc(Cl)c(Cl)cc2C(C)N1C(=O)NC[C@@]1(C2CC2)NC(=O)NC1=O (stereo partly drawn) [Example 11, 5,6-dichloro-N—(((R)-4-cyclopropyl-2,5-dioxoimidazolidin-4-yl)methyl)-1-methylisoindoline-3,3-d2-2-carboxamide]	0.03				0.092
O=C1NC(=O)C(CNC(=O)N2Cc3cc(Cl)c(Cl)cc3C2)(C2CC2)N1 (stereo not shown) [Example 1, 5,6-dichloro-N-((4-cyclopropyl-2,5-dioxoimidazolidin-4-yl)methyl)isoindoline-2-carboxamide]	0.038	0.06			0.031
